“Also recorded” adds a separate entry of the source.
Columns and labels:
[1] = system: IH-1 multiple myeloma cells; assay: CellTiter-Glo cell viability assay, IH-1; assay type: cell-based, human; conditions: IH-1, 10 μM, 48 h
Experimental: Minor effects on the proliferation of the IH-1 and RPMI 8226 cell lines are seen. Cells were seeded at the level shown (left-hand bar of each set) then incubated in medium containing water, 10 μM penetratin or 10 μM P7-A4-Pen for 48 hr (except for INA-6 cells, which were incubated with 12.5 μM penetratin or 12.5 μM P7-A4-Pen). The number of viable cells was detected based on quantitation of ATP by luminescent signal in correlation to a standard curve prepared for each cell line. Results are based on 3-5 biological replicates for each condition, error bars show standard deviation of mean.
Multiple myeloma cells JJN-3 (DSMZ (Germany) no. ACC 541), ANBL-6 (Cellosaurus accession number CVCL_5425, obtained from Dr Diane Jelinek, Mayo Clinic, Rochester, Minn.), INA-6 (Cellosaurus accession number CVCL_5209, obtained from Dr M. Gramatzki, University of Erlangen-Nurnberg, Erlangen, Germany), RPMI-8226 (ATCC CCL-155), and IH-1 (Cellosaurus accession number CVCL_WZ44, established from the pleural effusion of a myeloma patient by Myeloma research group, IKOM, NTNU, Trondheim, Norway) were grown in RPMI-1640 (Sigma-Aldrich Norway, Oslo, Norway) supplemented with 100 nM penicillin/streptomycin and 10% FCS, and for ANBL-6, IH-1 and INA-6 cells 2 ng/ml recombinant IL-6 (Gibco, Thermo Fisher Scientific, Waltham, Mass., USA). […]

MyD88 signaling complex = molecular target: T1, MyD88 signaling complex (Homo sapiens, UniProt P51617+Q99836+Q9NWZ3); assay: IRAK immunoprecipitations from LPS-stimulated human monocytes; assay type: cell-based; conditions: 15 μM, LPS 100 ng/ml
T1 construct: abrogated IRAK1, 2 and 4 recruitment to the MyD88 signaling complex in human monocytes; endogenous in cells; host or cells: primary human monocytes, LPS-stimulated
Experimental: Cell were pre-treated with Pen or P7-Pen (15 μM) for 30 min before addition of LPS (100 ng/ml) for specified time periods. Precipitations were performed using sheep anti-IRAK4 (A), anti-IRAK1 (B) and anti-IRAK2 (C) polyclonal antibodies covalently bound to magnetic beads, followed by Western blot analysis of lysates and precipitated proteins.
Pre-treatment of monocytes with P7-Pen abrogated recruitment of all tested IRAKs (1,2 and 4) to MyD88 (FIG. 28). This could be achieved by the peptide disrupting the Mal-MyD88 interaction, Mal-IRAK interactions or MyD88-IRAK interactions. Since IL-1R-initiated signalling through the Myddosome complex is not inhibited by the P7 peptide (see above), it is most likely that P7 interferes with Mal-IRAK interactions or the Mal-MyD88 interaction, rather than MyD88-IRAK interactions (since Mal is not involved in IL-1R signaling).

S. aureus particles = assay: Whole blood assay, S. aureus particle stimulation; assay type: cell-based, human; conditions: 20 μM, 4 h
Experimental: Whole blood samples from healthy donors were pre-treated with 20 μM peptides for 1 h then stimulated with TLR ligands for 4 h before plasma collection. Results are for at least 6 donors. The Wilcoxon matched-pairs signed rank test was used for statistical analysis between 2 groups in Prizm 8.2.1. In each graph, circles indicate whole blood pre-treated with water, squares indicate blood pre-treated with control peptide (average for treatment with Pen and C3-Pen), and triangles indicate pre-treatment with P7-Pen.
To evaluate the effect of peptides in an ex vivo system, a human whole blood model was used. Peripheral venous blood was drawn from 6 healthy donors into sterile polypropylene tubes (Thermo Scientific™ Nunc™ Biobanking and Cell Culture Cryogenic Tubes) containing the anti-coagulant Lepirudin (Refludan®; Celgene). Peptide solutions were made by diluting peptide stocks in DPBS (Dulbecco's Phosphate Buffered Saline with MgCl2 and CaCl2; Sigma-Aldrich) to obtain a final concentration of 140 μM. Peptide solution or DPBS was distributed in equal volume (50 μL) to 1.8 mL sterile polypropylene tubes (Thermo Scientific™Nunc™ Biobanking and Cell Culture Cryogenic Tubes). 250 μL whole blood was then added to the 1.8 mL tubes containing peptide solution or DPBS, and incubated at 37° C. under constant rotation for 1 h (concentration of peptides for pre-incubation: 23.3 μM). […]

primary human monocytes = assay: LDH cell viability in primary human monocytes; assay type: cell-based; conditions: compared to control peptides or P7-Pen
THP-1 cells = assay: LDH cytotoxicity assay in THP-1 cells; conditions: 1 h pre-treatment
Experimental: For every assay, separate wells were seeded for the required controls (Spontaneous LDH Release Controls and Maximum LDH Release Control) with the same amount of cells as used for peptide treatments. All supernatants were analysed in triplicate with the average value of technical replicates taken into calculations.
THP-1 cells were pre-treated with increasing concentrations of P7-Arg11 and control peptide Arg11 for 1 h (FIG. 3).

T1 sequence (Q99836 whole entry): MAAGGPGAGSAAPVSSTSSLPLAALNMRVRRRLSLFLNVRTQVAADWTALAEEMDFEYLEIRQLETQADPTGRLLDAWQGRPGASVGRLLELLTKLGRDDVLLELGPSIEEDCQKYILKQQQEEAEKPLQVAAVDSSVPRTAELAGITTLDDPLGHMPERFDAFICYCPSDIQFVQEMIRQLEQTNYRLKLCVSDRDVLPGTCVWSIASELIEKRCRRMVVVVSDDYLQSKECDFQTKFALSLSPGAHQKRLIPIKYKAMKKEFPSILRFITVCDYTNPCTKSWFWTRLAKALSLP
T1 sequence (P51617 whole entry): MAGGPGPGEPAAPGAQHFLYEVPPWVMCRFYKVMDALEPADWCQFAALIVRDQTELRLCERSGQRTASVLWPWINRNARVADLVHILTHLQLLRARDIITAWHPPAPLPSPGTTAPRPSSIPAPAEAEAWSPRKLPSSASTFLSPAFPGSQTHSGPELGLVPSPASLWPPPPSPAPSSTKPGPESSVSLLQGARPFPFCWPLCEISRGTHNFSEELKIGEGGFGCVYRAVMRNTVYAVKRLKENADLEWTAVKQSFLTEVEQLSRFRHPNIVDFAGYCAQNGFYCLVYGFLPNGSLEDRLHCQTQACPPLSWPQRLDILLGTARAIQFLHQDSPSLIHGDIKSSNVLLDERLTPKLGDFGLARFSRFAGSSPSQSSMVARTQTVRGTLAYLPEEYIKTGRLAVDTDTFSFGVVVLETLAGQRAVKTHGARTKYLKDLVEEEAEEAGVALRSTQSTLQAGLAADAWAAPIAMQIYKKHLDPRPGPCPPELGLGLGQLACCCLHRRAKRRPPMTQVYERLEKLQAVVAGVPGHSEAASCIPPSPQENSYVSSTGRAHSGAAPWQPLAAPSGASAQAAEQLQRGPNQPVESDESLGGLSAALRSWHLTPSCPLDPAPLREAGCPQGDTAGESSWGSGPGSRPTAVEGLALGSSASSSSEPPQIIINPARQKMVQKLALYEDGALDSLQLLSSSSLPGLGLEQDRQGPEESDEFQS
T1 sequence (Q9NWZ3 whole entry): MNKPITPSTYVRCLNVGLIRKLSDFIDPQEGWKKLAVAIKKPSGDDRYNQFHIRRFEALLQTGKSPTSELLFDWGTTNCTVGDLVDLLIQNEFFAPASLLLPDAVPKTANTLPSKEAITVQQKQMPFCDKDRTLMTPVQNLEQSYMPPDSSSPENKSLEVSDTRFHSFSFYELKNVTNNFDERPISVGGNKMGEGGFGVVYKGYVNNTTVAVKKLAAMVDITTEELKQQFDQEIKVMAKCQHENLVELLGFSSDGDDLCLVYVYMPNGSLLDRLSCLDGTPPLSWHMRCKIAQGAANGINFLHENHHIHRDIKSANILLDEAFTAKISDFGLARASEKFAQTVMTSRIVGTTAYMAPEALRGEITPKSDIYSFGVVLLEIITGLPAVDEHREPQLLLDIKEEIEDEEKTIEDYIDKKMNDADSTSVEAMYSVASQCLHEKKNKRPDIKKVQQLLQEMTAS

## Ac-ITVAASVTLTGRQIKIWFQNRRMKWKK-NH2 [Peptide P7-A4-Pen]
[1]
  cell proliferation: Minor effects; also recorded: inhibited cell proliferation

## Ac-ITVYASVTLTGRQIKIWFQNRRMKWKK-NH2 [Peptide P7-Pen]
MyD88 signaling complex
  recruitment of IRAKs (1, 2 and 4) to MyD88: abrogated
S. aureus particles
  S. aureus-mediated IFNβ secretion: significantly downregulated
  S. aureus-mediated TNF, IL-6 and IL-1β pro-inflammatory cytokine secretion: significantly decreased

## Ac-ITVYASVTLTGRRRRRRRRRRR-NH2 [Peptide P7-Arg11]
Primary human monocytes
  basal toxicity: higher basal toxicity
THP-1 cells; 5 μM and 10 μM
  toxicity (LDH assay): essentially non-toxic
THP-1 cells; 20 μM
  toxicity (LDH assay): increased toxicity

Reference: patent US20230220047A1, “PEPTIDES FOR TREATMENT OF SEPSIS AND CANCER” (NORWEGIAN UNIVERSITY OF SCIENCE AND TECHNOLOGY (NTNU), priority 2020, published 2023)
